Laboratory results as given in ChEMBL document CHEMBL1133459, “Adenosine kinase inhibitors. 1. Synthesis, enzyme inhibition, and antiseizure activity of 5-iodotubercidin analogues” (J Med Chem, 2000).

Columns and labels:
Adenosine kinase = Adenosine kinase (Homo sapiens, UniProt P55263); experiment: Inhibition of recombinant human adenosine kinase
Rattus norvegicus = organism: Rattus norvegicus; experiment: Evaluated for antiseizure activity in rat maximal electric shock (MES) seizure model and represented as ED50.; format: functional

Sequence of Adenosine kinase (P55263 whole entry): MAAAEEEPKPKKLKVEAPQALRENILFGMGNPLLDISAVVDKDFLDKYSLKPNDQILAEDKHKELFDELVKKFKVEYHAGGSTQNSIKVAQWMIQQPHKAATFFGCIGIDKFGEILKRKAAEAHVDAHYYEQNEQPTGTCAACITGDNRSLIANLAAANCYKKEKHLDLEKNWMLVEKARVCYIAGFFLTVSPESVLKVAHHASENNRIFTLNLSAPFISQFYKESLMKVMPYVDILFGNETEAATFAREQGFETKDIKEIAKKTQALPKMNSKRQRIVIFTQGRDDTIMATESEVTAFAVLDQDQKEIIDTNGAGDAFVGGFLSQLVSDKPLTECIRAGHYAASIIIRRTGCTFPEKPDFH

Compound | IC50 (Adenosine kinase) | ED50 (Rattus norvegicus)
CSc1cn([C@@H]2O[C@H](C)[C@@H](O)[C@H]2O)c2ncnc(N)c12 | 1350 nM | –
CNc1ncnc2c1c(I)cn2[C@@H]1O[C@H](CO)[C@@H](O)[C@H]1O | 1200 nM | –
COC[C@H]1O[C@@H](n2cc(I)c3c(N)ncnc32)[C@H](O)[C@@H]1O | 1200 nM | –
C[C@H]1O[C@@H](n2cc(I)c3c(=S)[nH]cnc32)[C@H](O)[C@@H]1O | 6500 nM | –
Nc1ncnc2c1c(Br)cn2[C@@H]1O[C@H](CO)[C@@H](O)[C@H]1O | 120 nM | –
CCCCSc1ncnc2c1c(I)cn2[C@@H]1O[C@H](C)[C@@H](O)[C@H]1O | 1000 nM | –
C[C@H]1O[C@@H](n2cc(I)c3c(SCc4ccc([N+](=O)[O-])cc4)ncnc32)[C@H](O)[C@@H]1O | 2000 nM | –
C=CCSc1ncnc2c1c(I)cn2[C@@H]1O[C@H](C)[C@@H](O)[C@H]1O | 2800 nM | –
NC[C@H]1O[C@@H](n2ccc3c(N)ncnc32)[C@H](O)[C@@H]1O | 13000 nM | –
C[C@H]1O[C@@H](n2cc(Br)c3c(N)ncnc32)[C@H](O)[C@@H]1O | – | < 3.7 mg/kg
Nc1ncnc2c1c(Cl)cn2[C@@H]1O[C@H](CO)[C@@H](O)[C@H]1O | 210 nM | –
C[C@H]1O[C@@H](n2cc(C#N)c3c(N)ncnc32)[C@H](O)[C@@H]1O | 310 nM | –
C[C@H]1O[C@@H](n2cc(I)c3c(N)ncnc32)[C@H](O)[C@@H]1O [5-IODO,5'-DEOXYTUBERCIDIN] | – | 0.3 mg/kg
Nc1ncnc2c1c(I)cn2[C@@H]1O[C@H](CO)[C@@H](O)[C@H]1O [IODOTUBERCIDIN] | – | 6 mg/kg
N#Cc1cn([C@@H]2O[C@H](CO)[C@@H](O)[C@H]2O)c2ncnc(N)c12 [TOYOCAMYCIN] | 310 nM | –
Nc1ncnc2c1ccn2[C@@H]1O[C@H](CO)[C@@H](O)[C@H]1O [TUBERCIDIN] | 10000 nM | –

Continued, in another order:

IC50 (Adenosine kinase) | Compound | ED50 (Rattus norvegicus)
170 nM | NC[C@H]1O[C@@H](n2cnc3c(N)ncnc32)[C@H](O)[C@@H]1O | –
35 nM | [N-]=[N+]=NC[C@H]1O[C@@H](n2cc(I)c3c(N)ncnc32)[C@H](O)[C@@H]1O | –
70 nM | CSc1cn([C@@H]2O[C@H](C)[C@@H](O)[C@H]2O)c2ncnc(Cl)c12 | –
0.6 nM | NC[C@H]1O[C@@H](n2cc(I)c3c(N)ncnc32)[C@H](O)[C@@H]1O | 7.1 mg/kg
24 nM | OC[C@H]1O[C@@H](n2cc(I)c3c(Cl)ncnc32)[C@H](O)[C@@H]1O | –
3 nM | C[C@H]1O[C@@H](n2cc(I)c3c(Cl)ncnc32)[C@H](O)[C@@H]1O | –
0.1 nM | NC[C@H]1O[C@@H](n2cc(I)c3c(Cl)ncnc32)[C@H](O)[C@@H]1O | –
1000 nM | C[C@H]1O[C@@H](n2cc(I)c3c(SCc4ccccc4)ncnc32)[C@H](O)[C@@H]1O | –
9 nM | [N-]=[N+]=NC[C@H]1O[C@@H](n2cc(I)c3c(Cl)ncnc32)[C@H](O)[C@@H]1O | –
45 nM | CSc1ncnc2c1c(I)cn2[C@@H]1O[C@H](C)[C@@H](O)[C@H]1O | –
500 nM | CC[C@H]1O[C@@H](n2cc(Br)c3c(N)ncnc32)[C@H](O)[C@@H]1O | –
63 nM | [N-]=[N+]=NC[C@H]1O[C@@H](n2cc(Br)c3c(N)ncnc32)[C@H](O)[C@@H]1O | –
60 nM | CC[C@H]1O[C@@H](n2cc(I)c3c(N)ncnc32)[C@H](O)[C@@H]1O | –
100 nM | C=C[C@H]1O[C@@H](n2cc(I)c3c(N)ncnc32)[C@H](O)[C@@H]1O | –
50 nM | C[C@H]1O[C@@H](n2cc(Br)c3c(Cl)ncnc32)[C@H](O)[C@@H]1O | –
100 nM | [N-]=[N+]=NC[C@H]1O[C@@H](n2cc(Br)c3c(Cl)ncnc32)[C@H](O)[C@@H]1O | –
535 nM | Cc1cn([C@@H]2O[C@H](C)[C@@H](O)[C@H]2O)c2ncnc(Cl)c12 | –
0.2 nM | NC[C@H]1O[C@@H](n2cc(Br)c3c(N)ncnc32)[C@H](O)[C@@H]1O | 4.2 mg/kg
